Measurements from PubChem BioAssay AID2305 (GlaxoSmithKline (GSK), 2010).
“And” between values parts separate entries of the source, which are not always exact repeats. Equal entries are not always repeated.

system: P. falciparum 3D7 growth, pLDH absorbance; experiment: blood-stage malaria parasite growth potency – strain 3D7, dose response (AID 2305)

| Compound | IC50 |
| --- | --- |
| COc1ccccc1C(C)NCC(=O)Nc1cc(C(F)(F)F)ccc1Cl (stereo not given) | 780 nM |
| CCc1c(CCNCCCCCCNC(C)(C)Cc2ccc3c(c2CC)OCO3)ccc(OC)c1OC | 930 nM |
| CCCCCCCCCn1c(NCc2cc(Cl)ccc2O)nc2ccccc21 | 830 nM |
| CN1CCC(NCc2ccc(-c3ccc(S(=O)(=O)NCc4ccccc4)cc3)cc2)CC1 | 830 nM |
| O=C(Nc1cccc(C(F)(F)F)c1)Nc1ccc(Cl)c(C(F)(F)F)c1 | 890 nM |
| CC(Cc1ccc(Sc2ccccc2)cc1)NCC(O)c1cccc(C(F)(F)F)c1 (stereo not given) | 590 nM |
| CN1CCCC(CN2CCN(Cc3ccc(-c4cccc(-c5nc6ccc(F)cc6[nH]5)c4)cc3)CC2)C1 (stereo not given) | 180 nM |
| CC(CN)OCn1cnc2c(N)ncnc21 (stereo not given) | 230 nM |
| FC(F)(F)c1ccc2nc(-c3cccc(-c4ccc(CNCCc5ccncc5)cc4)c3)[nH]c2c1 | 100 nM |
| COc1ccccc1C1CCN(C2CCC(NC(=O)/C=C/c3cccc(C(F)(F)F)c3)CC2)CC1 (stereo not given) | 810 nM |
| N=c1c2c(n(Cc3cccc(Cl)c3)c3c1CCC3)CCCC2 | 190 nM |
| COc1cc(NC(=O)c2sc(-c3ccc(Cl)cc3)cc2NC(=O)c2cccnc2)ccc1OCCN1CCCC1 | 380 nM |
| Fc1ccc2nc(-c3ccc(-c4ccc(CNCCc5ccncc5)cc4)cc3)[nH]c2c1 | 140 nM |
| COCC(C)n1c(SCC(=O)Nc2cc(C(F)(F)F)ccc2Cl)nc2ccccc2c1=O (stereo not given) | 130 nM |
| Nc1cccc(CNCc2ccc(-c3cccc(-c4nc5ccc(C(F)(F)F)cc5[nH]4)c3)cc2)c1 | 170 nM |
| COC(=O)c1ccc(CC(C)NCC(O)c2cccc(C(F)(F)F)c2)cc1 (stereo not given) | 970 nM and 1150 nM |
| COCCNCc1cccc(-c2ccccc2CN(C(=O)c2ccc3c(c2)OCO3)c2ccc(OC)cc2)c1 | 1110 nM |
| CCN(CC)c1ccccc1CNC(=O)c1cc(Cl)c(N)cc1OC | 210 nM |
| Cc1ccc(C(=O)Nc2ccc(C)c(OC3CCN(Cc4ccco4)C3)c2)cc1 (stereo not given) | 970 nM |
| CCCCCCCN(CCCCCCC)CCNc1cc(C)nc2ccccc12 | 340 nM |
| Fc1ccc2ncc(Cl)c(CCN3CCC(NCc4cc5c(cn4)OCCO5)CC3)c2c1 | 880 nM |
| C=CCN1C(=O)C(C(C)=O)=C(O)C1c1ccccc1 (stereo not given) | 50 nM |
| COc1ccc2ncc(C#N)c(CCN3CCC(NCc4ccc5c(c4)NC(=O)CO5)CC3)c2c1 | 590 nM |
| CC1CCCCC1N(C)C1CCN(CCCNC(=O)C=Cc2ccc(Cl)cc2Cl)CC1 (stereo not given) | 650 nM |
| O=C(/C=C/c1ccc(Cl)c(Cl)c1)NCCCCCN1CCCC(CNC(=O)Nc2ccc(C(F)(F)F)cc2)C1 (stereo not given) | 670 nM |

| Compound | IC50 |
| --- | --- |
| O=C(CCC1CCCC1)N(Cc1ccc(-c2ccc(CNCCc3ccccn3)cc2)cc1)CC1CCCCN1 (stereo not given) | 1150 nM |
| CN(c1ccc(NC(=O)CCOc2ccccc2)cc1)C1CCN(Cc2cccc(O)c2)CC1 | 1320 nM |
| O=C(NCCCN1CCCCC1)c1cccc(Nc2nccc(Nc3ccc(Oc4ccccc4)cc3)n2)c1 | 820 nM |
| O=C(NCCCc1ccccc1)c1csc(C2CCCN(C(=O)c3ccc(O)c(-c4ccccc4)c3)C2)n1 (stereo not given) | 910 nM |
| CC(C)(C)c1ccc(CN2CCC(NC(=O)c3ccc(-c4ccccc4Cl)s3)CC2)cc1 | 1350 nM |
| CCN(CC)CCn1c2ccccc2c2ccc(C(=O)Nc3ccc4sc(C)nc4c3)cc21 | 1060 nM |
| O=C(NC1CCC(CN2CCC(c3c[nH]c4ccccc34)CC2)CC1)c1cc(-c2ccccc2Cl)n(-c2cccc(Cl)c2)n1 (stereo not given) | 850 nM |
| O=S(=O)(NCCN1CCCC1)c1ccc(-c2ccc(CNCc3ccc(F)cc3)cc2)cc1F | 1280 nM |
| Cc1cccc2[nH]c(-c3ccc(-c4cccc(NC(=O)c5cnn6cccnc56)c4)cc3)nc12 | 870 nM |
| COc1ccc(O)cc1Cc1cnc2nc(N)nc(N)c2c1C | 10 nM |
| O=C1Nc2cccc3c2C1(CCCCCN1CC=C(c2c[nH]c4ccccc24)CC1)CCC3 (stereo not given) | 740 nM |
| Oc1ccc(Br)cc1C(O)CNCc1ccccc1OCc1ccccc1 (stereo not given) | 170 nM |
| Cc1cccc2[nH]c(-c3ccc(-c4cccc(NC(=O)Cc5cnc[nH]5)c4)cc3)nc12 | 900 nM |
| O=C(/C=C/c1ccc(Cl)c(Cl)c1)NCC(CCCN1CCC(c2c[nH]c3ccccc23)CC1)c1ccccc1 (stereo not given) | 810 nM |
| Cc1ccc(NC(=O)N2CCN(CCCCCNC(=O)/C=C/c3ccc(Cl)c(Cl)c3)CC2)cc1C | 1100 nM |
| OC(CNCc1ccccc1OCc1ccccc1)c1cc(C(F)(F)F)cc(C(F)(F)F)c1 (stereo not given) | 130 nM |
| COc1ccc(C(O)CNC(C)CCc2ccccc2)cc1C(F)(F)F (stereo not given) | 70 nM |
| c1ccc(COc2ccc(Nc3ncnc4ccc(-c5ccc(CN6CCSCC6)o5)cc34)cc2)cc1 | 830 nM |
| CCN(CC)CCN(Cc1ccc(-c2ccc(C(F)(F)F)cc2)cc1)C(=O)Cn1c(CCc2ccc(F)c(F)c2F)nc(=O)c2ccccc21 | 790 nM |
| CC(C)Oc1cc2c(cc1NS(=O)(=O)c1ccc(-c3ccc(Cl)s3)cc1F)CCN(C)CC2 | 710 nM |
| O=C(NCCCCN1CCC(c2c[nH]c3ccc(-c4ccccc4)cc23)CC1)c1ccc(-c2ccccc2)cc1 | 990 nM |
| Cc1cccc2[nH]c(-c3ccc(-c4ccc(CN5CC(C)OC(C)C5)cc4)cc3)nc12 (stereo not given) | 520 nM |
| CCCCCOc1ccc(C=NNc2nc(-c3ccccc3)cc(=O)[nH]2)cc1 | 890 nM |
| COc1cccc2c(Nc3ccccc3C)nc(Nc3ccccc3C)nc12 | 680 nM |
| COc1ccc(NC(=O)N2CCc3ccc(OCCN(C(C)C)C(C)C)cc32)cc1C(F)(F)F | 970 nM |

| Compound | IC50 |
| --- | --- |
| Cc1ccc(-c2nc(N3CCN(C(=O)c4ccco4)CC3)c3ccc(Cl)cc3n2)cc1 | 1210 nM |
| COc1ccc(Nc2nccc(N3CCC(NC(=O)c4cccc(C#N)c4)C3)n2)cc1 (stereo not given) | 820 nM |
| Cc1ccc(F)cc1S(=O)(=O)Nc1ccc(CCN2CCC(N3CCCCC3)CC2)cc1 | 720 nM |
| Fc1cc(Cl)ccc1Nc1ccnc(Nc2ccc3cn[nH]c3c2)n1 | 740 nM |
| CC(=O)Nc1ccc(CN2CCC(NC(=O)c3cc(-c4ccc(N(C)C)cc4)cs3)C2)cc1 (stereo not given) | 1170 nM |
| COc1ccc(-c2nc(-c3ccc([N+](=O)[O-])cc3)no2)cc1OC | 410 nM |
| COc1ccc(C2C(C(=O)OC3CCCC3)=C(C)NC3=C2C(=O)CCC3)cc1Br (stereo not given) | 590 nM |
| Cc1cc(CNCCCCCCNCc2ccc(Cl)cc2)ccc1O | 820 nM |
| c1cn(CCCNc2ncc(-c3ccsc3)c(-c3nccs3)n2)cn1 | 650 nM |
| COc1ccc(C(C(=O)NC2CCN(C[C@H](O)c3ccnc4ccc(OC)cc34)CC2)N2CCN(Cc3ccccc3)CC2)cc1 (stereo not given in full) | 150 nM |
| Cc1c(Br)cc2[nH]c(-c3ccc(C(=O)NC4CCN(Cc5ccccc5)CC4)cc3)nc2c1C | 330 nM |
| O=C1COC(c2ccccc2)(c2ccccc2)CN1CC1CCN(Cc2ccc(O)cc2Cl)C1 (stereo not given) | 1000 nM |
| COc1ccc(OCCn2cc(C(=O)c3ccco3)c3ccccc32)cc1 | 770 nM |
| COc1ccc(-c2ccc(NC(=O)c3cccc(Cl)c3)cc2)cc1CNC(C)C | 470 nM |
| CCCN(Cc1nnc(-c2cccs2)o1)C(=O)C1COc2ccccc2O1 (stereo not given) | 850 nM |
| COc1ccc(CCNCC(O)COc2nccc3c(S(=O)(=O)N4CCCNCC4)cccc23)cc1OC (stereo not given) | 270 nM |
| COc1ccc2[nH]cc(C3CCN(CCC4CCN(C(=O)/C=C/c5ccc(Cl)c(Cl)c5)CC4)CC3)c2c1 | 860 nM |
| COc1ccccc1C1CCN(C2CCC(NC(=O)/C=C/c3ccc(C(F)(F)F)cc3)CC2)CC1 (stereo not given) | 1160 nM |
| CN(C)CCC1CCN(CCS(=O)(=O)c2cccc(Nc3ccc(-c4ccsc4)cn3)c2)CC1 | 940 nM |
| Cc1cc(=O)c(-c2cccc(Oc3ccc(Cl)cc3)c2)c(C)[nH]1 | 740 nM |
| O=S(=O)(c1ccc(NC(=S)NN=Cc2ccccn2)cc1)N1CCCCC1 | 720 nM |
| COc1cc2nc(NCC3CCCCC3)nc(NCc3ccccc3)c2cc1OC | 140 nM |
| FC(F)(F)c1cccc(-c2cc(NCCCn3ccnc3)nc(-c3ccncc3)n2)c1 | 110 nM |
| CN1CCN(c2ccnc3ccc(NC(=O)N(C)c4ccc(Cl)c(Cl)c4)cc23)CC1 | 740 nM |
| O=C(NCCCCN1CCC(c2ccc3c(c2OCCN2CCCC2=O)CCCC3)CC1)c1ccc(-c2ccc(C(F)(F)F)cc2)cc1 | 1520 nM |

| Compound | IC50 |
| --- | --- |
| Cc1cc(=O)c(-c2ccc(OCc3ccc(Cl)cc3)cc2)c(C)[nH]1 | 730 nM |
| O=C(Nc1ccc(-c2nc3ccccc3[nH]2)cc1)c1ccc(N2CCCC2)c([N+](=O)[O-])c1 | 680 nM |
| N#Cc1ccc(C(=O)Nc2ccc(Cl)c(N3CCN(CCc4ccccc4)CC3)c2)cc1 | 930 nM |
| CC(C)c1ccc(NC(=O)c2ccc(NCCCN(C)Cc3ccccc3)c([N+](=O)[O-])c2)cc1 | 680 nM |
| COc1ccc(CCNCCCCCCNCCc2ccc(OC)c(OC)c2Cl)c(Cl)c1OC | 900 nM |
| Cc1cnc(Nc2ccccc2)nc1N[C@@H](CCCN)C(=O)Nc1ccccc1 | 810 nM |
| NC(N)=NC(=O)Nc1ccc(Cl)c(Cl)c1 | 1040 nM |
| Cc1[nH]nc2ccc(-c3cc(OC[C@@H](N)Cc4ccccc4)cnc3-c3ccccc3OCc3cccc(F)c3)cc12 | 1220 nM |
| CC(C)(Oc1c(C2CCN(CCCCNC(=O)c3ccc(-c4ccc(C#N)cc4)cc3)CC2)ccc2c1CCCC2)C(N)=O | 700 nM |
| C=C[C@H]1CN2CC[C@H]1C[C@@H]2[C@@H](O)c1ccnc2ccccc12 | 770 nM |
| CSc1nc2nc(C)c(Cc3cccc(F)c3)c(C)n2n1 | 900 nM |
| CC1(C)N=C(N)N=C(N)N1OCCOc1ccc(Cc2ccccc2)cc1 | 40 nM |
| Cc1nc2ccc3ccc(CNc4ccc(C(=O)N[C@@H](CCC(=O)O)C(=O)O)c(F)c4)cc3c2c(=O)[nH]1 | 400 nM |
| N#Cc1cncc(-c2nc3c(N4CCC(Cc5ccccc5)CC4)cccc3n2CCNCc2ccccc2)c1 | 570 nM |
| CCC1(CC)N=C(N)N=C(N)N1OCc1ccc(Cl)c(Cl)c1 | 60 nM |
| O=C(/C=C/c1ccc(Cl)c(Cl)c1)N1CCC(CCN2CCC(c3nc4ccc(O)cc4[nH]3)CC2)CC1 | 340 nM |
| Cc1cc(Nc2cccc(C(F)(F)F)c2)nc(N)n1 | 790 nM |
| Cc1cc(N[C@@H](Cc2ccccc2)C(=O)NC2CCCC2)nc(NCCCOC(C)C)n1 | 1480 nM |
| Cc1ccccc1Nc1nc(NCCc2ccccc2)nc2ccccc12 | 1260 nM |
| O=C(CSc1nn(-c2ccccc2)c(=S)s1)c1c[nH]c2ccccc12 | 1090 nM |
| Cc1[nH]c(C)c(-c2ccc(OCc3ccc(F)cc3)nc2)c(=O)c1Br | 200 nM |
| COc1ccc(C(=O)Nc2ccc3oc(-c4ccc(C(F)(F)F)cc4)cc3c2)cc1CCCN(C)C | 700 nM |
| CCCCN(CCCC)CCNC(=O)c1cc(OC(F)(F)F)ccc1O | 920 nM |
| Cc1ccc(Cn2cnc(N3CC(C)NC(C)C3)cc2=O)cc1NC(=O)Nc1ccc(-c2ccccc2)cc1 (stereo not given) | 850 nM |
| O=C(Nc1cccc(Cl)c1Cl)Nc1ccnc2ccccc12 | 750 nM |
